Measured values from PMC7037447, “Syntheses of L-Rhamnose-Linked Amino Glycerolipids and Their Cytotoxic Activities against Human Cancer Cells” (Molecules, 2020).
Like-named read-outs stand apart in the source and are kept apart here.

What was measured:
DU-145 [1] = assay: Cell membrane integrity, ethidium homodimer-1 (EthD-1) staining; format: cell-based; conditions: DU-145, 0.01%, 10 min
Procedure: (§1) After determining that the mechanism of cell death of compound 3 is independent of caspases-mediated apoptosis, we evaluated if cell death was due to membrane disruption or lysis using the cell impermeant ethidium homodimer-1 (EthD-1) dye that emits red fluorescence upon binding to DNA [13, 14]. DU-145 and JIMT-1 were treated with compound 3 at 10 and 15 µM, respectively. After 4–6 h, the cells were treated with EthD-1 dye and monitored under fluorescence microscopy.
(§2) Equal numbers of JIMT-1 and DU145 cells were dispersed into 96-well plates. After 24 h the cells were incubated with varying concentration of compounds 3 or 4 (4–6 µM) for 5–6 h. Subsequently, 2 µM of the cell membrane impermeant dye, ethidium homodimer-1 (EthD-1 (Molecular Probes, Eugene, OR, USA) that emits red fluorescence upon binding to DNA was added and the cells analysed by fluorescence microscopy. EthD-1 staining was compared to negative controls with no treatment and positive control treated with 0.01% Triton X-100 for 10 min.
(§3) Figure 5 Evaluation of effect of compound 3 on cell membrane of DU-145 and JIMT-1 cell lines using cell impermeant ethidium homodimer-1 (EthD-1) dye that emits red fluorescence upon binding to DNA.

JIMT-1 [2] = assay: as above; format: cell-based; conditions: JIMT-1, 0.01%, 10 min
Procedure: as §1, §2, §3

[3] = test system: human epithelial cancer cell lines: breast (MDA-MB-231, JIMT-1), pancreas (MiaPaCa2) and prostate (DU-145, PC-3); assay: MTS cell viability assay, 48 h, across the panel of cell lines; format: cell-based; conditions: for Cytotoxicity against the cancer cells: highest dose tested 30 µM, data not shown; for CC50: read-out: CC50 values across the cell lines
Procedure: (§4) The cells were incubated with increasing concentrations of the compounds (0–30 µM) for 48 h followed by assessment of cell viability using the MTS assay. […] This compound carries a primary amino group at the sn-3 position of the glycerolipid and L-rhamno sugar at the sn-2 position via an α-rhamnosidic linkage.
(§5) The cell lines were cultured from frozen stocks originally obtained from ATCC (Manassas, VA, USA). MDA-MB-231, JIMT-1, DU145, MDA-MB-468, Hs578t and MDA-MB-453 were grown in DMEM medium supplemented with 10% FBS. BT-474 cells were grown in DMEM/F12 medium supplemented with 10% FBS. MiaPaCa2 was cultured in DMEM supplemented with 10% FBS and 2.5% horse serum. All the media contained penicillin/streptomycin. U-251 and U-87 in Eagle MEM supplemented by 10% FBS, 1% Non-essential amino acids, 1 mM sodium pyruvate and 2 mM glutamine. BT-549 was cultured in RPMI 1640 medium supplemented with 10% FBS.
(§6) The effects of the GAELs on the viability of the epithelial cancer cell lines were determined as previously described. Briefly, equal numbers of the cells were dispersed into 96-well plates. After 24 h, the cells were incubated with the compounds (0–30 µM) for 48 h. MTS reagent [3-(4,5-dimethylthiazol-2-yl)-5-(3-carboxymethoxyphenyl)-2-(4-sulfophenyl)-2H-tetrazolium, inner salt; Promega, Madison, WI, USA] (20% v/v) was subsequently added and the plates were incubated for 1–4 h in a CO2 incubator followed by measurement of the medium at OD490 with a plate reader (Molecular Devices). Wells with media but no cells were treated in similar fashion and the values utilized as blank.

JIMT-1 [4] = assay: MTS cell viability assay, 48 h; format: cell-based, human; conditions: JIMT-1, 48 h
Procedure: as §4, §5, §6

DU-145 [5] = assay: MTS cell viability assay, 48 h; format: cell-based, human; conditions: DU-145, 48 h
Procedure: as §4, §5
as §6, with “Devices).” for “Devices). Wells with media but no cells were treated in similar fashion and the values utilized as blank.”

MiaPaCa2 [6] = assay: MTS cell viability assay, 48 h; format: cell-based, human
Procedure: as §4, §5
as §6, with “Devices).” for “Devices). Wells with media but no cells were treated in similar fashion and the values utilized as blank.”

PC-3 [7] = assay: MTS cell viability assay, 48 h; format: cell-based, human; conditions: PC-3, 48 h
Procedure: as §4, §6

MDA-MB-231 [8] = assay: MTS cell viability assay, 48 h; format: cell-based, human; conditions: MDA-MB-231, 48 h
Procedure: […] […] This compound carries a primary amino group at the sn-3 position of the glycerolipid and L-rhamno sugar at the sn-2 position via an α-rhamnosidic linkage.
as §5
as §6, with “After 24 h, the cells were incubated with the compounds (0–30 µM) for 48 h.” left out, “Devices).” for “Devices). Wells with media but no cells were treated in similar fashion and the values utilized as blank.”

JIMT-1 [9] = test system: JIMT-1; design: method as in PMID 28177244; conditions: cited from earlier work
MiaPaCa2 [10] = test system: MiaPaCa2; design: method as in PMID 28177244; conditions: cited from earlier work
DU-145 [11] = test system: DU-145; design: method as in PMID 28177244; conditions: cited from earlier work
PC-3 [12] = test system: PC-3; design: method as in PMID 28177244; conditions: cited from earlier work
MDA-MB-231 [13] = test system: MDA-MB-231; design: method as in PMID 28177244; conditions: cited from earlier work
[14] = test system: human epithelial cancer cell lines: breast (MDA-MB-231, JIMT-1), pancreas (MiaPaCa2) and prostate (DU-145, PC-3); design: method as in PMID 28177244; conditions: range over all cell lines; read-out: CC50 values across the cell lines; cited from earlier work
[15] = Homo sapiens, MTS, read-out: CC50
[16] = Homo sapiens, MIA PaCa-2, MiaPaCa2, 48 h, MTS, read-out: CC50
[17] = Homo sapiens, 48 h, range or bound over all cell lines, 48 h, MTS

With Triton X-100 [reference compound] the “EthD-1 staining, positive control” value (DU-145 [1]) was “stained bright red” and the “EthD-1 staining, positive control” value (JIMT-1 [2]) was “stained bright red”.
For `OC[C@@H]1OC(O)[C@H](O)[C@H](O)[C@H]1O` (stereo partly drawn) [L-mannose], the “Cytotoxicity against the cancer cells” value [3] was “not cytotoxic”.
For `CCCCCCCCCCCCCCCCOCC(CN)OC1OC(CO)C(O)C(O)C1O` [Compound 5, 3-Amino-1-hexadecyloxyl-2R-O-β-L-glucopyranosyl-sn-glycerol], the CC50 (JIMT-1 [4]; [15]) was > 30 µM, the CC50 (DU-145 [5]; [15]) was > 30 µM and the CC50 (MiaPaCa2 [6]; [16]) was > 30 µM. The CC50 (PC-3 [7]; [15]) was > 30 µM, the CC50 [3, 17] was > 30 µM and the Loss of viability ([3]; depending on the cell line, up to 30 µM, 48 h) was 0–35%.
With `C[C@H](O)[C@H](O)[C@@H](O)[C@@H](O)C=O` [rhamnose, L-Rhamnose] the “Cytotoxicity against the cancer cells” value [3] was “not cytotoxic”.
For `O=C(O)CCCc1ccc(N(CCCl)CCCl)cc1` [Chlorambucil, reference compound], the CC50 (MDA-MB-231 [8]; Homo sapiens) was > 150 µM, the CC50 (JIMT-1 [4]; Homo sapiens) was > 150 µM and the CC50 (DU-145 [5]; Homo sapiens) was > 150 µM. The CC50 (MiaPaCa2 [6]; Homo sapiens, MIA PaCa-2, 48 h) was > 150 µM, the CC50 (PC-3 [7]; Homo sapiens) was > 150 µM and the CC50 ([3]; Homo sapiens, 48 h) was > 150 µM.
For `CCCCCCCCCCCCCCCCOCC(CO[C@H]1O[C@H](CO)[C@@H](O)[C@H](O)[C@H]1N)OC` (stereo partly drawn) [Compound 7], the CC50 (JIMT-1 [9]) is listed as 9 µM, the CC50 (MiaPaCa2 [10]) is listed as 9 µM and the CC50 (DU-145 [11]) is listed as 9 µM. The CC50 (PC-3 [12]) was 13.5 µM.
With `CCCCCCCCCCCCCCCCOCC(CN)OC1OC(CN)C(O)C(O)C1O` [Compound 6, 3-Amino-1-hexadecyloxyl-2R-(6′-amino-6′deoxy-O-α-L-mannopyranosyl)-sn-glycerol] the CC50 (JIMT-1 [4]; [15]) was 12.5 µM, the CC50 (DU-145 [5]; [15]) was 17.5 µM and the CC50 (MiaPaCa2 [6]; [16]) was 19 µM. The CC50 (PC-3 [7]; [15]) was 25 µM, the “Times less active than glycolipid 3” value ([3]; CC50 compared with 3) was 2- to 4 and the CC50 [3, 17] was 12.5 to 25 µM.
For `CCCCCCCCCCCCCCCCOCC(CO[C@@H]1O[C@@H](CO)[C@H](O)[C@@H](O)[C@@H]1N)OC` (stereo partly drawn) [Compound 1], the CC50 (MDA-MB-231 [13]) is listed as 11 µM, the CC50 (JIMT-1 [9]) is listed as 6.5 µM and the CC50 (MiaPaCa2 [10]) is listed as 7.5 µM. The CC50 (DU-145 [11]) was 12.5 µM, the CC50 (PC-3 [12]) was 12.5 µM and the CC50 [14] was 6.5 to 12 µM.
“1-Hexadecyl-2R-methoxyl-3-O-α-L-rhamnopyranosyl-sn-glycerol [Compound 2]” gave a CC50 (MDA-MB-231 [8]; MTS, concentration decreasing cell viability by 50% relative to untreated control, read-out: CC50) of 26 µM, a CC50 (JIMT-1 [4]; MTS, read-out: CC50) of 28 µM and a CC50 (DU-145 [5]; MTS, read-out: CC50) of 25 µM. The CC50 (MiaPaCa2 [6]; MiaPaCa2, 48 h, MTS, read-out: CC50) was > 30 µM, the CC50 (PC-3 [7]; MTS, read-out: CC50) was 25 µM and the CC50 ([3]; range or bound over all cell lines, 48 h, MTS) was ≥ 21.5 µM.
Compound `CCCCCCCCCCCCCCCCOCC(CNC(=O)CCc1ccc(O)cc1)O[C@@H]1O[C@@H](C)[C@H](O)[C@@H](O)[C@H]1O` (stereo partly drawn) [Compound 4] has a CC50 (MDA-MB-231 [8]; Homo sapiens, MTS, concentration decreasing cell viability by 50% relative to untreated control, read-out: CC50) of 23 µM, a CC50 (JIMT-1 [4]; [15]) of 25 µM and a CC50 (DU-145 [5]; [15]) of 30 µM. The CC50 (MiaPaCa2 [6]; [16]) was > 30 µM, the CC50 (PC-3 [7]; [15]) was 21.5 µM and the CC50 [3, 17] was ≥ 21.5 µM.
For `OC[C@@H]1OC(O)[C@@H](O)[C@H](O)[C@H]1O` (stereo partly drawn) [L-glucose], the “Cytotoxicity against the cancer cells” value [3] was “not cytotoxic”.
